Earlier results in patent US11382927B2, “Liquid medicinal preparation” (FUJIFILM Corporation, priority 2016, dated 2022).

Test system: tumor
Details: oral administration to mice

## Nc1ccn([C@@H]2S[C@H](CO)[C@@H](O)[C@@H]2F)c(=O)n1 [Compound A, 1-(2-deoxy-2-fluoro-4-thio-β-D-arabinofuranosyl)cytosine]
  Antitumor activity: strong antitumor activity
